In brackets after ≈: the same amount, converted by molar mass. Where only a bound is given, the exact number is not on record here.

Data set [1] is described as follows: Inhibition of necroptosis in human HT-29 cells assessed as reduction in TNFalpha/BV6/zVAD-fmk-induced cell death incubated for 18 hrs by Cell Titer Glo luminescent cell viability assay. It counts as functional, cell-based. The following applies: HT-29, 18 h. Background: In ATP-based viability assays light output follows the ATP content of the culture.
In data set [2] the target is T1, Receptor-interacting serine/threonine-protein kinase 1 (Homo sapiens, UniProt Q13546).
T1 sequence (Q13546 whole entry): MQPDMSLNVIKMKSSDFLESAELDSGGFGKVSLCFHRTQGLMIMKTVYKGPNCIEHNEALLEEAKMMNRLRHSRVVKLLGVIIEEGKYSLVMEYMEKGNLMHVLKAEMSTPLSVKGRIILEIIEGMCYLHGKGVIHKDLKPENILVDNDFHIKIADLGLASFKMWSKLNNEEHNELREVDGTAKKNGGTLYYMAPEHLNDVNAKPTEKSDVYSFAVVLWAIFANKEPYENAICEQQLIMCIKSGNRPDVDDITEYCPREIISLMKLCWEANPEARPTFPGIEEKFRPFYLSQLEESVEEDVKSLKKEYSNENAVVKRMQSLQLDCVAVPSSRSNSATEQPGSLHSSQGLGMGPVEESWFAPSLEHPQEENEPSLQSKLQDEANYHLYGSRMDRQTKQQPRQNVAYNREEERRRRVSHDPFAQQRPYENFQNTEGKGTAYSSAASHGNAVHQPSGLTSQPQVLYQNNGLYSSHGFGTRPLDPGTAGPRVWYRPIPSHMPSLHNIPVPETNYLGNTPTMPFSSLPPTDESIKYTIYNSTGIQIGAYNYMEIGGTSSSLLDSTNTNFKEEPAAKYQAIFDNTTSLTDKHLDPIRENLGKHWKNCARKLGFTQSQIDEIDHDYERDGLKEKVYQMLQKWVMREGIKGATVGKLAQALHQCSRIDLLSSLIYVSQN
In words: Inhibition of recombinant human His/GST-tagged RIPK1 (2 to 257 residues) expressed in insect expression system incubated for 2 hrs by fluorescence polarization assay. The note with it: read-out: Ki(app). A general note: Polarisation of emitted light reports the rotation of a fluorescent probe.

The nature of data set [3]: Kinetic solubility of compound at pH 7.4. The data set is classed as physicochemical. The note with it: buffer, read-out: Kinetic_solubility.
Data set [4] can be described thus: Lipophilicity, logD of compound at pH 7.4. The note with it: buffer. The data set is classed as physicochemical.

What is called EC50 is the concentration giving half of the maximal effect. As for `CN1C(=O)[C@@H](NC(=O)c2n[nH]c3c2CC(c2ccccc2)CC3)COc2ccccc21` (mixture of isomers), the EC50 in data set [1] was found to be 520 nM.

For the compound `CN1C(=O)[C@@H](NC(=O)c2n[nH]c3c2CCC(C)(C)C3)COc2ccccc21`, the concentration for a half-maximal effect (EC50) in data set [1] is over 20000 nM. Besides, the Ki in data set [2] is over 10000 nM. As for `CN1C(=O)[C@@H](NC(=O)c2nnc[nH]2)COc2ccccc21`, in data set [1], the EC50 was over 20000 nM. The Ki in data set [2] was over 10000 nM. For `CN1C(=O)[C@@H](NC(=O)c2n[nH]c3c2C[C@H](C(F)(F)F)CC3)COc2ccccc21` the same measures were 43 nM and 7 nM. Taken in the same sequence, the figures for `CN1C(=O)[C@@H](NC(=O)c2n[nH]c3c2CC(C)(C)CC3)COc2ccccc21` were 170 nM and 42 nM. As for `C[C@H]1CCc2[nH]nc(C(=O)N[C@H]3COc4ccccc4N(C)C3=O)c2C1`, in data set [1], the EC50 came to 400 nM. As to `CN1C(=O)[C@@H](NC(=O)c2n[nH]c3c2CC(n2cccn2)CC3)COc2ccccc21` (mixture of isomers), the EC50 in data set [1] is 4100 nM. Usually logD stands for lipophilicity at a set pH, counting ionised and neutral species. Read a high logD as a more lipophilic compound. Consider `CN1C(=O)[C@@H](NC(=O)c2nnn3c2CC(C(F)(F)C(F)(F)F)CC3)COc2ccccc21` (mixture of isomers), for which the solubility kinetic in data set [3] was determined as 57.1 µM. Moreover, the logD in data set [4] came to 2. In addition, the EC50 in data set [1] stood at 64 nM. For `CN1C(=O)[C@@H](NC(=O)c2nnc3ccc(C(F)(F)F)nn23)COc2ccccc21` the same measures were 160 µM (≈ 65 µg/mL), 1 and 2400 nM. With `CN1C(=O)[C@@H](NC(=O)c2n[nH]c3c2CC2CC2C3)COc2ccccc21` (mixture of isomers), the EC50 in data set [1] is 7000 nM. The same measure, in the same setting: in the case of `CN1C(=O)[C@@H](NC(=O)c2n[nH]c3c2C2CC2CC3)COc2ccccc21` (single isomer, unassigned; diastereomer 1) it was 6900 nM; in that of `CN1C(=O)[C@@H](NC(=O)c2n[nH]c3c2CCCC3)COc2ccccc21`, 15000 nM. Turning to `C[C@@H]1CCc2[nH]nc(C(=O)N[C@H]3COc4ccccc4N(C)C3=O)c2C1`, the EC50 in data set [1] worked out at 130 nM. As to `CN1C(=O)[C@@H](NC(=O)c2nnn3c2C[C@H](C(F)(F)F)CC3)COc2ccccc21`, in data set [3], the solubility kinetic was found to be 99 µM (≈ 40.5 µg/mL). Moreover, in data set [4], the logD was determined as 1.5. The EC50 in data set [1] turned out to be 210 nM. Turning to `CN1C(=O)[C@@H](NC(=O)c2ncn3ccc(C(F)(F)F)cc23)COc2ccccc21`, in data set [1], the EC50 is 12 nM. Further, in data set [2], the Ki was 5 nM. Consider `CN1C(=O)[C@@H](NC(=O)c2n[nH]c3ncc(C(F)(F)F)cc23)COc2ccccc21`, for which the solubility kinetic in data set [3] amounted to 59 µM (≈ 23.9 µg/mL). Also, the pH-dependent lipophilicity (logD) in data set [4] was 3.3. For the same compound, the EC50 in data set [1] turned out to be 580 nM. Consider `CN1C(=O)[C@@H](NC(=O)c2n[nH]c3c2C[C@H](C(C)(C)C)CC3)COc2ccccc21`, for which the EC50 in data set [1] was found to be 290 nM. With `CN1C(=O)[C@@H](NC(=O)c2n[nH]c3ccc(C(F)(F)F)cc23)COc2ccccc21`, the EC50 in data set [1] came out at 28 nM. Also, the Ki in data set [2] was found to be 5 nM. With `CN1C(=O)[C@@H](NC(=O)c2n[nH]c3c2CCC2(CC2)C3)COc2ccccc21`, the EC50 in data set [1] is over 20000 nM. `CC(C)c1cnc2[nH]nc(C(=O)N[C@H]3COc4ccccc4N(C)C3=O)c2c1`: the solubility kinetic in data set [3] was 3.4 µM (≈ 1.29 µg/mL). The logD in data set [4] turned out to be 3.5. Also, in data set [1], the EC50 was 390 nM. `CN1C(=O)[C@@H](NC(=O)c2nn(C)c3c2C[C@H](C(F)(F)F)CC3)COc2ccccc21`: the EC50 in data set [1] is 500 nM. Moreover, the Ki in data set [2] is 63 nM. With `CN1C(=O)[C@@H](NC(=O)c2nnc3ccc(C(F)(F)C(F)(F)F)nn23)COc2ccccc21`, the solubility kinetic in data set [3] was found to be 164 µM (≈ 74.8 µg/mL). In addition, the logD in data set [4] worked out at 1.6. The EC50 in data set [1] amounted to 130 nM.

The values are drawn from ChEMBL document CHEMBL4665648, “Potent and selective inhibitors of receptor-interacting protein kinase 1 that lack an aromatic back pocket group” (Bioorg Med Chem Lett, 2019).
